The text below walks through data of patent US20100075907A1, “NEUROMEDIN U RECEPTOR AGONISTS AND USES THEREOF” (priority 2006, published 2010).

What is called IC50 is the concentration needed to halve the response being measured. Broadly, the EC50 is the concentration at which the effect is half-maximal.

Non-standard residues stand in square brackets, D forms with d. Residues, ends and D or L forms follow the SMILES beside them. No end group written: not given here. hArg = N=C(N)NCCCC[C@H](N)C(=O)O; dNle = CCCC[C@@H](N)C(=O)O

For this assay, the target named is hNMUR2 (Homo sapiens, UniProt Q9GZQ4). The assay can be described thus: In vitro functional assay, HEK-hR2 cells. In kind it is cell-based. Details: expressed in transfected cells; host or cells: FLP-In CHO or HEK-293 FLP-In cells (pcDNA5); HEK-293/aeq17 lines (pcDNA3.1) were also made; % Activity: concentration or dose not given beside the values. The text has this:
Human, mouse or rat cDNAs encoding NMUR1 or NMUR2 (as described in Howard et al. Nature 406: 70-74 (2000) were subcloned in pcDNA5 (Invitrogen) and transfected into FLP-In CHO cells and HEK-293 FLP-In cells purchased from Invitrogen (Carlsbad, Calif.) using lipofectamine (Invitrogen). The Flp-In system allows integration and expression of a particular gene of interest at a specific genomic location utilizing the Flp recombinase from yeast. The transfected cells were selected by growth in medium containing 200 μg/mL hygromycin (Invitrogen). Populations were frozen at early passage numbers, and these stocks were used for further studies. Stable clones that expressed the mRNAs were identified functionally by FLIPR as well as by RT-PCR. […] Two different rodent NMUR1 cell lines were thus generated: one with the codon as predicted from the genomic databases and another cell line with an engineered methionine (ATG) as the start codon. Additionally, stable cell lines expressing the human receptors were generated in HEK-293/aeq17 cells which stably express the aequorin gene under the CMV promoter. The human NMUR2 cDNA was cloned into pcDNA3.1 and human NMUR1 was subcloned into pIRES-puro (Clontech, Mountain View, Calif.), after transfection cells were selected in media containing G418 and either hygromycin (NMUR2) or puromycin (NMUR1).
The NMU receptors signal primarily through Gαq/11 proteins; therefore calcium mobilization assays can be utilized for functional activity.
Stable cell lines expressing human and or rodent NMUR1 or human NMUR2 receptors were plated at a density of 12,000 cells per well overnight on poly-lysine coated 384-well black-walled plates. The following day, the media was removed from the plates and the cells were subsequently loaded with Fluo-3 (Molecular Probes), a calcium sensitive dye, diluted in FLIPR buffer (1× Hank's buffered saline containing 20 mM HEPES, 0.1% BSA, 2.5 mM probenecid (Sigma) and 1.6 mM TR40). All reagents are from Invitrogen unless otherwise noted. Peptide stocks were resuspended in DMSO at a stock concentration of 2 mM and diluted in FLIPR buffer on the day of the experiment to a 4 μM working stock solution.
After a 90 minute incubation at room-temperature, cell plates were loaded onto a FLIPR (Molecular Devices) to monitor cellular fluorescence (excitation=488 nm; emission=540 nm) before and after compound/peptide addition. Eight to twelve point dose responses were tested on NMUR-expressing cell lines using FLIPR with 1 μM peptide as the highest dose. The response after peptide addition was taken as the maximum fluorescence units minus the fluorescence immediately prior to stimulation for each well. EC50 values were calculated using GraphPad Prism (San Diego, Calif.) software.
In addition to FLIPR, NMU receptor function can also be evaluated using an aequorin assay. Stable cell lines expressing the aequorin jelly fish gene can be used to report the activation of GPCRs by monitoring intracellular calcium mobilization. The objective is to identify compounds which specifically stimulate aequorin bioluminescence. Calcium-dependent luminescence is generated by the treatment of cells with the coelenterate luciferin, coelenterazine. Briefly, confluent monolayers of HEK-293/aeq 17 cells expressing hNMUR1 or hNMUR2 are “charged” with coelenterazine (Molecular Probes, Carlsbad, Calif.). Confluent T75 flasks are rinsed with media containing 300 μM glutathione and 0.1% FBS. Cells are incubated at 37° C. for one hour in 8 mL media, 0.1% FBS, 300 μM glutathione, and 20 μM coelenterazine. T75 flasks are subsequently rinsed with 6 mL ECB buffer (140 mM NaCl, 20 mM KCl, 20 mM HEPES, 5 mM glucose, 1 mM MgCl, 1 mM CaCl2, 0.1 mg/mL BSA, PH 7.3-7.4). Cells are removed from the flask in ECB buffer, pelleted, and resuspended at a density of 2×10^5 cells/mL. Agonists are added to the cells and activity is determined using a luminometer.

Chain of hNMUR2 (Q9GZQ4 whole entry): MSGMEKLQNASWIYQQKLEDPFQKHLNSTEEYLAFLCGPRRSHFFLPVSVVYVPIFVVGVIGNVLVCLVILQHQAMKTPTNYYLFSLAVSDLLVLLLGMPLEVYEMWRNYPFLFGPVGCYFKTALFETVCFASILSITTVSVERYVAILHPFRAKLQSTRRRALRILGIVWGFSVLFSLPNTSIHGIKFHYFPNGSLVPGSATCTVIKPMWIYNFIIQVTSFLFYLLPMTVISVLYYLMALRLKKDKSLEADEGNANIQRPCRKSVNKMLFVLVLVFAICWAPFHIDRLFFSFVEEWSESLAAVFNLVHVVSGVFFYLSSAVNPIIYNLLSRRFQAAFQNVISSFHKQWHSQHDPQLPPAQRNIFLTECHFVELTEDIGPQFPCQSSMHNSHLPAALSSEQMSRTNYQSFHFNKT

As to `CC(C)C[C@@H](NC(=O)[C@H](Cc1ccccc1)NC(=O)[C@@H](N)Cc1ccc(O)cc1)C(=O)N[C@@H](Cc1c[nH]c2ccccc12)C(=O)N[C@@H](CCCNC(=N)N)C(=O)N1CCC[C@H]1C(=O)N[C@@H](CCCNC(=N)N)C(=O)N[C@@H](CC(N)=O)C(N)=O` [Agonist B, YF-(D-L)-WRPRN-CONH2] (H-YF[dL]WRPRN-NH2), for the setting “Table 8, HEK-hR2, functional”, the “% Activity” value is recorded as 0% and the IC50 is over 1000 nM.

In the case of `C[C@@H](NC(=O)[C@H](Cc1ccccc1)NC(=O)[C@@H](N)Cc1ccc(O)cc1)C(=O)N[C@@H](Cc1c[nH]c2ccccc12)C(=O)N[C@@H](CCCNC(=N)N)C(=O)N1CCC[C@H]1C(=O)N[C@@H](CCCNC(=N)N)C(=O)N[C@@H](CC(N)=O)C(N)=O` [Agonist D, YF-(D-A)-WRPRN-CONH2] (H-YF[dA]WRPRN-NH2; N-terminus assumed), under “Table 8, HEK-hR2, functional”, the “% Activity” value was 0% and the IC50 is over 1000 nM.

Regarding `CC(=O)N[C@@H](Cc1ccccc1)C(=O)N[C@H](CC(C)C)C(=O)N[C@@H](Cc1c[nH]c2ccccc12)C(=O)N[C@@H](CCCNC(=N)N)C(=O)N1CCC[C@H]1C(=O)N[C@@H](CCCNC(=N)N)C(=O)N[C@@H](CC(N)=O)C(N)=O` [Agonist E, Ac-F-(D-L)-WRPRN-CONH2] (Ac-F[dL]WRPRN-NH2), under “Table 8, HEK-hR2, functional”, the “% Activity” value is recorded as 1.8% and the IC50 was over 1000 nM.

With `CC(C)C[C@H](NC(=O)[C@H](Cc1c[nH]c2ccccc12)NC(=O)[C@@H](N)Cc1ccccc1)C(=O)N[C@@H](Cc1ccccc1)C(=O)N[C@@H](CCCNC(=N)N)C(=O)N1CCC[C@H]1C(=O)N[C@@H](CCCCNC(=N)N)C(=O)N[C@@H](CC(N)=O)C(N)=O` [Agonist I, FWLFRP-(Harg)-N-CONH2] (H-FWLFRP[hArg]N-NH2), the “% Activity” value (Table 9, HEK-hR2, functional) worked out at 99%.

Take `CC(C)C[C@H](NC(=O)[C@H](Cc1c[nH]c2ccccc12)NC(=O)[C@@H](N)Cc1ccccc1)C(=O)N[C@@H](Cc1ccccc1)C(=O)N[C@@H](CCCNC(=N)N)C(=O)N[C@@H](C)C(=O)N[C@@H](CCCCNC(=N)N)C(=O)N[C@@H](CC(N)=O)C(N)=O` [Agonist J, FWLFRA-(Harg)-N-CONH2] (H-FWLFRA[hArg]N-NH2): the “% Activity” value (Table 9, HEK-hR2, functional) is recorded as 59%.

For the compound `CCCC[C@@H](NC(=O)[C@H](CCCNC(=N)N)NC(=O)[C@H](C)NC(=O)[C@H](CCCNC(=N)N)NC(=O)[C@H](Cc1ccccc1)NC(=O)[C@H](CC(C)C)NC(=O)[C@H](Cc1ccccc1)NC(=O)[C@@H](N)Cc1c[nH]c2ccccc12)C(N)=O` [Agonist K, WFLFRAR-(D-Nle)-CONH2] (H-WFLFRAR[dNle]-NH2), under “Table 9, HEK-hR2, functional”, the “% Activity” value stood at 100% and a half-maximal response (EC50) required 2 nM.

For `CC(C)C[C@H](NC(=O)[C@H](Cc1c[nH]c2ccccc12)NC(=O)[C@H](Cc1ccccc1)NC(=O)CNC(=O)[C@H](CCCNC(=N)N)NC(=O)[C@H](CO)NC(=O)[C@H](CCC(N)=O)NC(=O)[C@H](CO)NC(=O)[C@H](C)NC(=O)[C@H](Cc1ccccc1)NC(=O)[C@@H]1CCCN1C(=O)[C@H](CO)NC(=O)[C@H](CCC(N)=O)NC(=O)[C@H](Cc1ccccc1)NC(=O)[C@H](CCC(=O)O)NC(=O)[C@H](CCC(=O)O)NC(=O)[C@H](CC(=O)O)NC(=O)[C@@H](NC(=O)[C@H](CCCNC(=N)N)NC(=O)[C@@H](N)Cc1ccccc1)C(C)C)C(=O)N[C@@H](Cc1ccccc1)C(=O)N[C@@H](CCCNC(=N)N)C(=O)N1CCC[C@H]1C(=O)N[C@@H](CCCCNC(=N)N)C(=O)N[C@@H](CC(N)=O)C(N)=O` [Agonist O] (H-FRVDEEFQSPFASQSRGFWLFRP[hArg]N-NH2; N-terminus assumed), for the setting “Table 9, HEK-hR2, functional”, the “% Activity” value worked out at 67% and a half-maximal effect (EC50) was put at 16 nM.

Consider `CC(C)C[C@H](NC(=O)[C@H](Cc1c[nH]c2ccccc12)NC(=O)[C@H](Cc1ccccc1)NC(=O)CNC(=O)[C@H](CCCNC(=N)N)NC(=O)[C@H](CO)NC(=O)[C@H](CCC(N)=O)NC(=O)[C@H](CO)NC(=O)[C@H](C)NC(=O)[C@H](Cc1ccccc1)NC(=O)[C@@H]1CCCN1C(=O)[C@H](CO)NC(=O)[C@H](CCC(N)=O)NC(=O)[C@H](Cc1ccccc1)NC(=O)[C@H](CCC(=O)O)NC(=O)[C@H](CCC(=O)O)NC(=O)[C@H](CC(=O)O)NC(=O)[C@@H](NC(=O)[C@H](CCCNC(=N)N)NC(=O)[C@@H](N)Cc1ccccc1)C(C)C)C(=O)N[C@@H](Cc1ccccc1)C(=O)N[C@@H](CCCNC(=N)N)C(=O)N[C@@H](C)C(=O)N[C@@H](CCCCNC(=N)N)C(=O)N[C@@H](CC(N)=O)C(N)=O` [Agonist P] (H-FRVDEEFQSPFASQSRGFWLFRA[hArg]N-NH2; N-terminus assumed), for which the “% Activity” value (Table 9, HEK-hR2, functional) came to 100%.

Consider `CCCC[C@@H](NC(=O)[C@H](CCCNC(=N)N)NC(=O)[C@@H]1CCCN1C(=O)[C@H](CCCNC(=N)N)NC(=O)[C@H](Cc1ccccc1)NC(=O)[C@H](CC(C)C)NC(=O)[C@H](Cc1c[nH]c2ccccc12)NC(=O)[C@H](Cc1ccccc1)NC(=O)CNC(=O)[C@H](CCCNC(=N)N)NC(=O)[C@H](CO)NC(=O)[C@H](CCC(N)=O)NC(=O)[C@H](CO)NC(=O)[C@H](C)NC(=O)[C@H](Cc1ccccc1)NC(=O)[C@@H]1CCCN1C(=O)[C@H](CO)NC(=O)[C@H](CCC(N)=O)NC(=O)[C@H](Cc1ccccc1)NC(=O)[C@H](CCC(=O)O)NC(=O)[C@H](CCC(=O)O)NC(=O)[C@H](CC(=O)O)NC(=O)[C@@H](NC(=O)[C@H](CCCNC(=N)N)NC(=O)[C@@H](N)Cc1ccccc1)C(C)C)C(N)=O` [Agonist Q] (H-FRVDEEFQSPFASQSRGFWLFRPR[dNle]-NH2), for which the “% Activity” value (Table 9, HEK-hR2, functional) amounted to 97%.

Turning to `CC(C)C[C@H](NC(=O)[C@H](Cc1ccccc1)NC(=O)[C@@H](N)Cc1ccc(O)cc1)C(=O)N[C@@H](Cc1ccccc1)C(=O)N[C@@H](CCCNC(=N)N)C(=O)N1CCC[C@H]1C(=O)N[C@@H](CCCNC(=N)N)C(=O)N[C@@H](CC(N)=O)C(N)=O` [NMU-8, reference compound], the “% Activity” value (Table 9, HEK-hR2, functional) is recorded as 104%.

On to “Ac-FFRPRN-NH2 [Agonist F, Ac-FFRPRN-CONH2]”, for which, where the note is “Table 8, HEK-hR2, functional”, the “% Activity” value stood at 96% and the IC50 was determined as 870 nM.

In the case of FALFRPRN-NH2 [Agonist N], the “% Activity” value (Table 9, HEK-hR2, functional) is on record as 100%.

For “H-FRVDEEFQSPFASQSRGYFWRPRN-NH2 [Agonist G]”, under “Table 8, HEK-hR2, functional”, the “% Activity” value is 14% and the IC50 was over 1000 nM.

As to H-FWLFRARN-NH2 [Agonist L], the “% Activity” value (Table 9, HEK-hR2, functional) is 100%.

For the compound H-YFGWRPRN-NH2 [Agonist C], under “Table 8, HEK-hR2, functional”, the “% Activity” value stood at 0% and the IC50 was over 1000 nM.

As to WALFRARN-NH2 [Agonist M], where the note is “Table 9, HEK-hR2, functional”, the “% Activity” value is given as 93% and a half-maximal effect (EC50) was put at 33 nM.

For the compound YFWRPRN-NH2 [Agonist A, YFWRPRN-CONH2], where the note is “Table 8, HEK-hR2, functional”, the “% Activity” value stood at 0% and the IC50 is over 1000 nM.
